Holding throughout (type): in vivo, C57BL/6J mice
The test system of test [1] is murine model of collagenase-induced ICH. Description: Morris water maze testing after ICH. To be noted: Days 29–32 after ICH, 0.05 mg/kg i.v. at 4, 8 and 24 hours post ICH, n = 14/group. As to the method:
Experiment 4. Neurobehavioral assessment. Animals were randomized to vehicle (n = 14) or CN-105 (n = 14) groups, and evaluated for neurobehavioral function (neuroscore), vestibulomotor function (rotarod), and spatial learning (MWM). Mice received tail vein injections of vehicle or CN105 at 4, 8, and 24 hours post ICH.
(§1) Intrastriatal collagenase injection was used to induce ICH in mice, as previously described. Briefly, the trachea was intubated after anesthesia induction with 4.6% isoflurane, and the lungs were mechanically ventilated with 1.5% isoflurane in a mixture of 30%/70% O2/N2. Rectal temperature was maintained at 37 °C ± 0.2 °C by circulating warm water in an underbody waterbed. The animal’s head was secured in a stereotactic frame, and a midline scalp incision was made. After exposing the skull, a burr hole was created 2.2 mm left lateral to bregma, and a 0.5 μL syringe needle (Hamilton, Reno, NV, USA) was advanced to a depth of 3 mm from cortex. Type IV-S Clostridial collagenase (Sigma, St. Louis, MO, USA) was injected over 2 minutes (0.075 U in 0.4 μL normal saline). […]
The MWM[20] was used to assess the effects of therapeutic intervention on spatial learning and memory. […] Latency to find the platform was recorded by a computerized video tracking system (KeilSoft LLC, Chapel Hill, NC).

For test [2] the test system is unchanged. The test is described as follows: Hemorrhage volume by SWI MRI after collagenase-induced ICH. The conditions noted are these: mean ± standard error, n = 3–4/group. As for the experimental part:
Experiment 2. Hematoma volume. Hemorrhage volume was assessed by magnetic resonance imaging (MRI) at 2 hours post ICH (before treatment) and 24 hours post ICH. 3 saline- and 3 CN-105-treated animals were perfused at 24 hours post ICH, and brain hematoxylin and eosin (H&E) staining was performed. CN-105 or saline was given by tail vein injection at 2, 6, and 24 hours post-ICH.
as §1, with “saline). After closing the incision, animals were allowed to recover spontaneous ventilation, and were then extubated and given free access to food and water.” for “saline).”

Test [3] shares this test system. The test is described as follows: F4/80 microglial staining and stereology after ICH. To be noted: 5 days after ICH; 0.05 mg/kg i.v. at 4, 8 and 24 hours post ICH; vehicle 14593 ± 116, p = 0.003; mean ± standard error, n = 3–4. As to the method: Experiment 5. Microglial staining. A separate cohort of animals was randomized to vehicle (n = 4) or CN-105 (n = 4) groups and received tail vein injections at 4, 8, and 24 hours post ICH. Immunohistochemical microglial staining was performed and gliosis was quantified by stereology. One mice in vehicle group died within 1 day after injury and was excluded.
as §1
After anesthetic induction, mice underwent transcardial perfusion with 30 mL normal saline. […] Cells were counted using a Nikon 218912 light microscope interfaced with the StereoInvestigator software package (MicroBrightField, Williston, VT, USA). […]

On to Ac-VSRRR-NH2 [CN-105, Ac-VSRRR-amide], for which, in test [1] (Day x Group p = 0.02), the “Morris water maze escape latencies versus vehicle” value is on record as “significantly lower latencies”. For the same substance, the “Morris water maze learning curves (learning slopes) versus vehicle” value in test [1] (p = 0.01) is on record as “significantly steeper learning curves”. Further, the “hemorrhage volume by SWI MRI at 24 hours post ICH” value in test [2] (0.05 mg/kg i.v. tail vein at 2, 6 and 24 hours post-ICH, saline 10.77 ± 1.70, p = 0.82) is given as 10.14 ± 1.92 mm^3. Also, in test [2] (2 hours after ICH induction, prior to treatment (baseline of the CN-105 group)), the “hematoma volume by MRI at 2 hours after ICH” value was 9.93 ± 1.88 mm^3. In addition, the “number of F4/80-positive cells in the ipsilateral hippocampi” value in test [3] stood at 9327 ± 838 cells/mm^3.
